Data: patent US5430043A, “Platelet aggregation inhibitors” (G. D. Searle & Co., priority 1993, dated 1995)
Structures can show the parent of a compound that is named as a salt.

Experiments:
[1] = test system: Platelet aggregation in PRP (dog); test: In-Vitro Platelet Aggregation in PRP (Dog), collagen-induced; format: cell-based; conditions: collagen 33 μg/ml final
Procedure: In-Vitro Platelet Aggregation in PRP--(Dog)
Healthy male or female dogs were fasted for 8 hours prior to drawing blood; then 60 ml whole blood was collected using a butterfly needle and 60 cc plastic syringe with 6 ml of 0,129 M buffered sodium citrate (3.8%) (drawn from a minimum of 3 dogs and blood was pooled). The syringe was rotated carefully as blood was drawn to mix the citrate. Platelet-rich plasma (PRP) was prepared by centrifugation at 975×g for 3.17 minutes at room temperature, allowing the centrifuge to coast to a stop without braking. The PRP was removed from the blood with a plastic pipette and placed in a plastic capped 50 ml Corning conical sterile centrifuge tube which was held at room temperature. Platelet poor plasma (PPP) was prepared by centrifuging the remaining blood at 2000×g for 15 minutes at room temperature allowing the centrifuge to coast to a stop without braking. The platelet count in the PRP was routinely 2-4×10^8 platelets per ml. 400 μl of the PRP preparation and 50 μl of the compound to be tested or saline were preincubated for 2 minutes at 37° C. in a BioData aggregometer (BioData, Horsham, Pa.). 50 μl of collagen (diluted 1:3 with 5% dextrose and water solution, 33 μg/ml final concentration, equine tendon, Chronolog, Havertown, Pa.) was added to the cuvettes and the aggregation was monitored for 3 minutes. All compounds are tested in duplicate. Results are calculated as follows: [formula]
The assay results for the compounds of the present invention and their median inhibitory concentrations (IC50) are recorded in Tables I-III.

[2] = test system: collagen-induced platelet aggregation; test: Oral (IG) administration of compound (ester) to dogs; inhibition of collagen-induced platelet aggregation; format: in vivo; conditions: dog
Procedure: Oral Administration of Compound
Dogs (n=2) were weighed and two control blood samples (2×2 ml) were drawn via venipuncture from the cephalic vein. Blood was centrifuged at 266×g for 6 minutes to prepare PRP. Percent aggregation prior to compound administration (baseline) was established by adding 50 μl of collagen to 450 μl of PRP and measuring aggregation for 4 minutes. Compound (in the ester form) was administered orally (single dose) by gelatin capsule. Blood samples (2×2 ml) were drawn at selected time intervals after dosing. Inhibition of collagen-induced platelet aggregation was determined by comparing aggregation responses in the samples containing compound with the responses of samples before compound administration (baseline). The remaining blood was centrifuged for 2 minutes at 12,000 ×g to prepare PPP for determination of concentration of compound in the plasma samples by bioassay (see below).

[3] = test system: collagen-induced platelet aggregation; test: I.V. compound (acid) administration to dogs; inhibition of collagen-induced platelet aggregation; format: in vivo; conditions: dog, 1 mg/kg
Procedure: I.V. Compound Administration
Dogs were placed in a dog sling. Two control blood samples (2×2 ml) were collected and PRP was prepared and percent aggregation was determined to establish a baseline as stated above. Compound (in the acid form) in 4 ml of saline/water (50:50) was injected into the cephalic vein over one minute with a syringe connected to a 23 g butterfly infusion set. Blood samples (2×2 ml) were drawn at 5 minute intervals after dosing for the first 15 minutes, 15 minute intervals until 60 minutes, 30 minute intervals until 2 hours, hourly until ~6 hours, again at 24 hours or until baseline aggregation was reached. PRP was prepared for aggregation studies as previously described. PPP was prepared for determination of concentration of compound by bioassay (see below).

[4] = Canis lupus familiaris, Platelet

## COC(=O)CC(CC(=O)O)NC(=O)CN1CCN(c2ccc(C(=N)N)cc2)C1=O (racemic) [Example 14, (±)Methylhydrogen3-[[[[1-[4-(aminoiminomethyl)phenyl]-4,5-dihydro-2(3H)-oxo-1H-imidazol-3-yl]methyl]carbonyl]amino]pentanedioate]
[1]; [4]
  IC50: 180 nM

## C=CC(CC(=O)OCC)NC(=O)Cn1ccn(-c2ccc(C(=N)N)cc2)c1=O (stereo in doubt) [Example 11, Ethyl 3-[[[[1-[4-(aminoiminomethyl)phenyl]-2(3H)-oxo-1H-imidazol-3-yl]methyl]carbonyl]amino]pent-4(3S)-enoate trifluoroacetate]
[2]; 5 mg/kg
  Hours duration (IG - ester): 24 h
[2]; 5 mg/kg, 24 hr
  % inhibition (IG - ester): 35%
[2]; 5 mg/kg, max @ 3 hours
  Max % inhibition (IG - ester): 71%

## C=CC(CC(=O)O)NC(=O)Cn1ccn(-c2ccc(C(=N)N)cc2)c1=O (stereo in doubt) [Example 12, 3-[[[[1-[4-(aminoiminomethyl)phenyl]-2(3H)-oxo-1H-imidazol-3-yl]methyl]carbonyl]amino]-4(3S)-pentenoic acid trifluoroacetate]
[1]; [4]
  IC50: 650 nM
[3]
  Hours duration (IV - acid): 6 h
[3]; 6 hr
  % inhibition (IV - acid): 54%

## N=C(N)c1ccc(-n2ccn(CC(=O)NCCC(=O)O)c2=O)cc1 [Example 3, 3-[[[[1-[4-(aminoiminomethyl)phenyl]-2(3H)-oxo-1H-imidazol-3-yl]methyl]carbonyl]amino]propanoic acid, trifluoroacetate]
[1]; [4]
  IC50: 2000 nM

## N=C(N)c1ccc(-n2ccn(CC(=O)NCCCC(=O)O)c2=O)cc1 [Example 4, 4-[[[[1-[4-(aminoiminomethyl)phenyl]-2(3H)-oxo-1H-imidazol-3-yl]methyl]carbonyl]amino]butanoic acid trifluoroacetate]
[1]; [4]
  inhibition at 1 µM: 0%

## N=C(N)c1ccc(N2CCN(CC(=O)NCCC(=O)O)C2=O)cc1 [Example 5, 3-[[[[1-[4-(aminoiminomethyl)phenyl]-4,5-dihydro-2(3H]-oxo-1H-imidazol-3-yl]methyl]carbonyl]amino]propanoic acid, trifluoroacetate]
[1]; [4]
  IC50: 190 nM
[3]
  Hours duration (IV - acid): 24 h
[3]; 24 hr
  % inhibition (IV - acid): 31%

## N=C(N)c1ccc(N2CCN(CC(=O)NCCCC(=O)O)C2=O)cc1 [Example 7, 4-[[[[1-[4-(Aminoiminomethyl)phenyl]-4,5-dihydro-2(3H)-oxo-1H-imidazol-3-yl]methyl]carbonyl]amino]butanoic acid]
[1]; [4]
  IC50: 1100 nM

## CCOC(=O)CCNC(=O)CN1CCN(c2ccc(C(=N)N)cc2)C1=O [Example 8, Ethyl 3-[[[[1-[4-(aminoiminomethyl)phenyl]-4,5-dihydro-2(3H)-oxo-1H-imidazol-3-yl]methyl]carbonyl]amino]propanoate]
[2]; 2.5 mg/kg
  Hours duration (IG - ester): 3.1 h
[2]; 2.5 mg/kg, 3.1 hr
  % inhibition (IG - ester): 16%

## CCOC(=O)CC(C)NC(=O)Cn1ccn(-c2ccc(C(=N)N)cc2)c1=O (stereo not shown) [Example 9, Ethyl 3-[[[[1-[4-(aminoiminomethyl)phenyl]-2(3H)-oxo-1H-imidazol-3-yl]methyl]carbonyl]amino]butanoate trifluoroacetate]
[2]; 10 mg/kg
  Hours duration (IG - ester): 4.5 h
[2]; 10 mg/kg, 4.5 hr
  % inhibition (IG - ester): 33%

## CC(CC(=O)O)NC(=O)Cn1ccn(-c2ccc(C(=N)N)cc2)c1=O (stereo not shown) [Example 10, 3-[[[1-[4-(aminoiminomethyl)phenyl]-2(3H)-oxo-1H-imidazol-3-yl]methyl]carbonyl]amino]butanoic acid trifluoroacetate]
[1]; [4]
  IC50: 620 nM

## COC(=O)CC(CC(=O)OC)NC(=O)CN1CCN(c2ccc(C(=N)N)cc2)C1=O [Example 13, Dimethyl 3-[[[[1-[4-(aminoiminomethyl)phenyl]-4,5-dihydro-2(3H)-oxo-1H-imidazol-3-yl]methyl]carbonyl]amino]pentanedioate]
[2]; 5 mg/kg
  Hours duration (IG - ester): 24 h
[2]; 5 mg/kg, 24 hr
  % inhibition (IG - ester): 14%
[2]; 5 mg/kg, max @ 6 hours
  Max % inhibition (IG - ester): 63%

## N=C(N)c1ccc(-n2ccn(CCC(=O)NCCC(=O)O)c2=O)cc1 [Example 16, 3-[[[[1-[4-(aminoiminomethyl)phenyl]-2(3H)-oxo-1H-imidazol-3-yl]ethyl]carbonyl]amino]propanoic acid]
[1]; [4]
  IC50: 340 nM

## CCOC(=O)CC(NC(=O)Cn1ccn(-c2ccc(C(=N)N)cc2)c1=O)c1ccoc1 (stereo not drawn) [Example 19, Ethyl β-[[[[1-[4-(aminoiminomethyl)phenyl]-2(3H)-oxo-1H-imidazol-3-yl]-methyl]carbonyl]amino]-3-furanpropanoate trifluoroacetate]
[2]; 10 mg/kg
  Hours duration (IG - ester): 24 h
[2]; 10 mg/kg, 24 hr
  % inhibition (IG - ester): 28%
[2]; 10 mg/kg, max @ 6 hours
  Max % inhibition (IG - ester): 85%

## N=C(N)c1ccc(-n2ccn(CC(=O)NC(CC(=O)O)c3ccoc3)c2=O)cc1 (stereo not drawn) [Example 20, β-[[[[1-[4-(aminoiminomethyl)phenyl]-2(3H)-oxo-1H-imidazol-3-yl]methyl]carbonyl]amino]-3-furanpropanoic acid trifluoroacetate]
[1]; [4]
  IC50: 700 nM

## CCOC(=O)CC(NC(=O)Cn1ccn(-c2ccc(C(=N)N)cc2)c1=O)c1cccnc1 (stereo not drawn) [Example 21, Ethyl β-[[[[1-[4-(aminoiminomethyl)phenyl]-2(3H)-oxo-1H-imidazol-3-yl]methyl]carbonyl]amino]-3-pyridinepropanoate]
[2]; 10 mg/kg
  Hours duration (IG - ester): 24 h
[2]; 10 mg/kg, 24 hr
  % inhibition (IG - ester): 43%

## N=C(N)c1ccc(-n2ccn(CC(=O)NC(CC(=O)O)c3cccnc3)c2=O)cc1 (stereo not drawn) [Example 22, β-[[[[1-[4-(aminoiminomethyl)phenyl]-2(3H)-oxo-1H-imidazol-3-yl]methyl]carbonyl]amino]-3-pyridinepropanoic acid]
[1]; [4]
  IC50: 170 nM
[3]
  Hours duration (IV - acid): 24 h
[3]; 24 hr
  % inhibition (IV - acid): 40%

## CCOC(=O)C[C@H](NC(=O)CN1CCN(c2ccc(C(=N)N)cc2)C1=O)c1cccnc1 [Example 23, Ethyl β-[[[[1-[4-(aminoiminomethyl]phenyl]-4,5-dihydro-2(3H)-oxo-1H-imidazol-3-yl]methyl]carbonyl]amino]-3(S)-pyridinepropanoate]
[2]; 5 mg/kg
  Hours duration (IG - ester): 24 h
[2]; 5 mg/kg, 24 hr
  % inhibition (IG - ester): 88%

## N=C(N)c1ccc(N2CCCN(CC(=O)NCCC(=O)O)C2=O)cc1 [Example 26, 3-[[[[1-[4-(Aminoiminomethyl)phenyl]-1,4,5,6-tetrahydro-2(3H)-oxopyrimidin-3-yl]methyl]carbonyl]amino]propanoic acid, trifluoroacetate]
[1]; [4]
  inhibition at 1 µM: 18%

## β-[[[[4-(aminoiminomethyl)phenyl]-4,5-dihydro-2(3H)-oxo-1H-imidazol-3- yl]methyl]carbonyl]amino]-3-pyridinepropanoic acid [Example 24]
[1]
  IC50: 80 nM
[3]
  Hours duration (IV - acid): 27 h
[3]; 27 hr
  % inhibition (IV - acid): 98%
